Laboratory results: patent US20170240566A1, “AMINO-SUBSTITUTED ANNULATED PYRIMIDINES AND USE THEREOF” (Bayer Pharma Aktiengesellschaft, priority 2014, published 2017)
Counter-ions that a name gives are not always drawn.

Tests used:
[1] = system: recombinant guanylate cyclase reporter cell line; assay: Effect on a recombinant guanylate cyclase reporter cell line; format: cell-based; settings: minimum effective concentration; in some cases means of individual determinations; read-out: MEC
Experimental: B-2. Effect on a Recombinant Guanylate Cyclase Reporter Cell Line
The cellular activity of the compounds of the invention is determined using a recombinant guanylate cyclase reporter cell line, as described in F. Wunder et al., Anal. Biochem. 339, 104-112 (2005). Representative values (MEC=minimum effective concentration) for the compounds of the invention are shown in the table below (Table 1; in some cases as means of individual determinations): […]

[2] = target: T1, human phosphodiesterase 5 (PDE 5) (Homo sapiens, UniProt O76074); assay: Inhibition of human phosphodiesterase 5 (PDE 5); format: biochemical; settings: PDE 5 preparation from human platelets; in some cases means of individual determinations
T1 construct: PDE 5 preparations are obtained from human platelets by disruption; from tissue; host or cells: human platelets
Experimental: B-3. Inhibition of human phosphodiesterase 5 (PDE 5)
PDE 5 preparations are obtained from human platelets by disruption (Microfluidizer®, 800 bar, 3 passes), followed by centrifugation (75 000 g, 60 min, 4° C.) and ion exchange chromatography of the supernatant on a Mono Q 10/10 column (linear sodium chloride gradient, elution with a 0.2-0.3M solution of sodium chloride in buffer (20 mM Hepes pH 7.2, 2 mM magnesium chloride). Fractions having PDE 5 activity are combined (PDE 5 preparation) and stored at −80° C.
To determine their in vitro action on human PDE 5, the test substances are dissolved in 100% DMSO and serially diluted. Typically, dilution series (1:3) from 200 μM to 0.091 μM are prepared (resulting final concentrations in the test: 4 μM to 0.0018 μM). In each case 2 μl of the diluted substance solutions are placed into the wells of microtitre plates (Isoplate-96/200W; Perkin Elmer). Subsequently, 50 μl of a dilution of the above-described PDE 5 preparation are added. The dilution of the PDE 5 preparation is chosen such that during the later incubation less than 70% of the substrate are converted (typical dilution: 1:100; dilution buffer: 50 mM tris/hydrochloric acid pH 7.5, 8.3 mM magnesium chloride, 1.7 mM EDTA, 0.2% BSA). The substrate, [8-^3H] cyclic guanosine-3′,5′-monophosphate (1 μCi/μl; Perkin Elmer), is diluted 1:2000 with assay buffer (50 mM tris/hydrochloric acid pH 7.5, 8.3 mM magnesium chloride, 1.7 mM EDTA) to a concentration of 0.0005 μμCi/μl. By addition of 50 μl (0.025 μCi) of the diluted substrate, the enzyme reaction is finally started. The test mixtures are incubated at room temperature for 60 min and the reaction is stopped by adding 25 μl of a suspension of 18 mg/ml yttrium scintillation proximity beads in water (phosphodiesterase beads for SPA assays, RPNQ 0150, Perkin Elmer). The microtitre plates are sealed with a film and left to stand at room temperature for 60 min. Subsequently, the plates are analysed for 30 s per well in a Microbeta scintillation counter (Perkin Elmer). IC50 values are determined using the graphic plot of the substance concentration against percentage PDE 5 inhibition.

IC50 [2] [nM]	Structure (SMILES)	minimal effective concentration [1] [µM]
32	Cc1nc2c(cc1F)c(-c1nc(NCC(N)(CF)CF)c3c(n1)NC(=O)C3(C)C(F)(F)F)nn2Cc1cccc(F)c1F (racemic) [Example 6, rac-4-{[2-Amino-3-fluoro-2-(fluoromethyl)propyl]amino}-2-[1-(2,3-difluorobenzyl)-5-fluoro-6-methyl-1H-pyrazolo[3,4-b]pyridin-3-yl]-5-methyl-5-(trifluoromethyl)-5,7-dihydro-6H-pyrrolo[2,3-d]pyrimidin-6-one]	0.1
100	Cc1nc2c(cc1F)c(-c1nc(NCC(N)(CF)CF)c3c(n1)NC(=O)C3(C)C(F)(F)F)nn2Cc1ncccc1F (racemic) [Example 15, rac-4-{[2-Amino-3-fluoro-2-(fluoromethyl)propyl]amino}-2-{5-fluoro-1-[(3-fluoropyridin-2-yl)methyl]-6-methyl-1H-pyrazolo[3,4-b]pyridin-3-yl}-5-methyl-5-(trifluoromethyl)-5,7-dihydro-6H-pyrrolo[2,3-d]pyrimidin-6-one]	0.1
100	CC1(C(F)(F)F)C(=O)Nc2nc(-c3nn(Cc4ncccc4F)c4ncc(F)cc34)nc(NCC(N)(CF)CF)c21 (racemic) [Example 18, rac-4-{[2-Amino-3-fluoro-2-(fluoromethyl)propyl]amino}-2-{5-fluoro-1-[(3-fluoropyridin-2-yl)methyl]-1H-pyrazolo[3,4-b]pyridin-3-yl}-5-methyl-5-(trifluoromethyl)-5,7-dihydro-6H-pyrrolo[2,3-d]pyrimidin-6-one]	0.1
120	Cc1nc2c(cc1F)c(-c1nc(NCC(N)(CF)CF)c3c(n1)NC(=O)C3(C)C(F)(F)F)nn2Cc1cccc(F)c1F (single isomer, unassigned; ent-4) [Example 7, ent-4-{[2-Amino-3-fluoro-2-(fluoromethyl)propyl]amino}-2-[1-(2,3-difluorobenzyl)-5-fluoro-6-methyl-1H-pyrazolo[3,4-b]pyridin-3-yl]-5-methyl-5-(trifluoromethyl)-5,7-dihydro-6H-pyrrolo[2,3-d]pyrimidin-6-one (Enantiomer A)]	0.3
120	Cc1nc2c(cc1F)c(-c1nc(NCC(N)(CF)CF)c3c(n1)NC(=O)C3(C)C(F)(F)F)nn2Cc1cccc(F)c1F (single isomer, unassigned; ent-4) [Example 8, ent-4-{[2-Amino-3-fluoro-2-(fluoromethyl)propyl]amino}-2-[1-(2,3-difluorobenzyl)-5-fluoro-6-methyl-1H-pyrazolo[3,4-b]pyridin-3-yl]-5-methyl-5-(trifluoromethyl)-5,7-dihydro-6H-pyrrolo[2,3-d]pyrimidin-6-one (Enantiomer B)]	0.1
290	Cc1nc2c(cc1F)c(-c1nc(NCC(N)(CF)CF)c3c(n1)NC(=O)C3(C)C(F)(F)F)nn2Cc1ccccc1F (single isomer, unassigned; ent-4) [Example 10, ent-4-{[2-Amino-3-fluoro-2-(fluoromethyl)propyl]amino}-2-[5-fluoro-1-(2-fluorobenzyl)-6-methyl-1H-pyrazolo[3,4-b]pyridin-3-yl]-5-methyl-5-(trifluoromethyl)-5,7-dihydro-6H-pyrrolo[2,3-d]pyrimidin-6-one (Enantiomer A)]	0.2
390	Cc1nc2c(cc1F)c(-c1nc(NCC(N)(CF)CF)c3c(n1)NC(=O)C3(C)C(F)(F)F)nn2Cc1ccccc1F (single isomer, unassigned; ent-4) [Example 11, ent-4-{[2-Amino-3-fluoro-2-(fluoromethyl)propyl]amino}-2-[5-fluoro-1-(2-fluorobenzyl)-6-methyl-1H-pyrazolo[3,4-b]pyridin-3-yl]-5-methyl-5-(trifluoromethyl)-5,7-dihydro-6H-pyrrolo[2,3-d]pyrimidin-6-one (Enantiomer B)]	0.1
300	Cc1nc2c(cc1F)c(-c1nc(NCC(N)(CF)CF)c3c(n1)NC(=O)C3(C)C(F)(F)F)nn2Cc1c(F)ccc(F)c1F (single isomer, unassigned; ent-4) [Example 13, ent-4-{[2-Amino-3-fluoro-2-(fluoromethyl)propyl]amino}-2-[5-fluoro-6-methyl-1-(2,3,6-trifluorobenzyl)-1H-pyrazolo[3,4-b]pyridin-3-yl]-5-methyl-5-(trifluoromethyl)-5,7-dihydro-6H-pyrrolo[2,3-d]pyrimidin-6-one (Enantiomer A)]	0.3
100	Cc1nc2c(cc1F)c(-c1nc(NCC(N)(CF)CF)c3c(n1)NC(=O)C3(C)C(F)(F)F)nn2Cc1c(F)ccc(F)c1F (single isomer, unassigned; ent-4) [Example 14, ent-4-{[2-Amino-3-fluoro-2-(fluoromethyl)propyl]amino}-2-[5-fluoro-6-methyl-1-(2,3,6-trifluorobenzyl)-1H-pyrazolo[3,4-b]pyridin-3-yl]-5-methyl-5-(trifluoromethyl)-5,7-dihydro-6H-pyrrolo[2,3-d]pyrimidin-6-one (Enantiomer B)]	0.1
57	Cc1nc2c(cc1F)c(-c1nc(NCC(N)(CF)CF)c3c(n1)NC(=O)C3(C)C(F)(F)F)nn2Cc1ncccc1F (single isomer, unassigned; ent-4) [Example 16, ent-4-{[2-Amino-3-fluoro-2-(fluoromethyl)propyl]amino}-2-{5-fluoro-1-[(3-fluoropyridin-2-yl)methyl]-6-methyl-1H-pyrazolo[3,4-b]pyridin-3-yl}-5-methyl-5-(trifluoromethyl)-5,7-dihydro-6H-pyrrolo[2,3-d]pyrimidin-6-one (Enantiomer A)]	0.07
	Cc1nc2c(cc1F)c(-c1nc(NCC(N)(CF)CF)c3c(n1)NC(=O)C3(C)C(F)(F)F)nn2Cc1ncccc1F (single isomer, unassigned; ent-4) [Example 17, ent-4-{[2-Amino-3-fluoro-2-(fluoromethyl)propyl]amino}-2-{5-fluoro-1-[(3-fluoropyridin-2-yl)methyl]-6-methyl-1H-pyrazolo[3,4-b]pyridin-3-yl}-5-methyl-5-(trifluoromethyl)-5,7-dihydro-6H-pyrrolo[2,3-d]pyrimidin-6-one (Enantiomer B)]	0.65
53	CC1(C(F)(F)F)C(=O)Nc2nc(-c3nn(Cc4ncccc4F)c4ncc(F)cc34)nc(NCC(N)(CF)CF)c21 (single isomer, unassigned; ent-4) [Example 19, ent-4-{[2-Amino-3-fluoro-2-(fluoromethyl)propyl]amino}-2-{5-fluoro-1-[(3-fluoropyridin-2-yl)methyl]-1H-pyrazolo[3,4-b]pyridin-3-yl}-5-methyl-5-(trifluoromethyl)-5,7-dihydro-6H-pyrrolo[2,3-d]pyrimidin-6-one (Enantiomer A)]	0.07
120	CC1(C(F)(F)F)C(=O)Nc2nc(-c3nn(Cc4ncccc4F)c4ncc(F)cc34)nc(NCC(N)(CF)CF)c21 (single isomer, unassigned; ent-4) [Example 20, ent-4-{[2-Amino-3-fluoro-2-(fluoromethyl)propyl]amino}-2-{5-fluoro-1-[(3-fluoropyridin-2-yl)methyl]-1H-pyrazolo[3,4-b]pyridin-3-yl}-5-methyl-5-(trifluoromethyl)-5,7-dihydro-6H-pyrrolo[2,3-d]pyrimidin-6-one (Enantiomer B)]	0.65
	CC1(C)C(=O)Nc2nc(-c3nn(Cc4ccccc4F)c4cc(Cl)ccc34)nc(NCC(N)(CF)CF)c21 [Example 21, 4-{[2-Amino-3-fluoro-2-(fluoromethyl)propyl]amino}-2-[6-chloro-1-(2-fluorobenzyl)-1H-indazol-3-yl]-5,5-dimethyl-5,7-dihydro-6H-pyrrolo[2,3-d]pyrimidin-6-one trifluoroacetate]	0.3
